According to patent US20220305115A1 (JANSSEN SCIENCES IRELAND UNLIMITED COMPANY, priority 2019, published 2022):

Assays:
Assay type in all cases: cell-based
[1] = Off-target cytotoxicity, galactose-adapted HepG2 cells (Cell Titer Glo, 5 days); conditions: human, galactose-adapted HepG2, five days incubation, intracellular ATP, read-out: CC50 GALHEPG2 CTG 50
From the text: (§1) To assess potential off-target toxicity of certain compounds disclosed herein, the in vitro cytotoxicity of those compounds was profiled using a panel of 5 cell lines with various tissue origins. Compound cytotoxicity was examined in hepatoma-derived Huh-7 and HepG2 cells, prostate carcinoma-derived PC-3 cells, lymphoma derived MT-4 cells and a normal diploid lung cell line MRC-5. HepG2 and PC-3 cells used were adapted to grow in glucose-free galactose-containing medium. These cells have a relatively higher sensitivity to inhibitors of mitochondrial oxidative phosphorylation compared to the same cells maintained in standard glucose-containing culture medium (Marroquin et al., Toxicol. Sci. 2007; 97 (2):539-47). Cell viability was determined by measuring intracellular ATP levels following five days of continuous incubation with test compounds.
(§2) The human hepatoma Huh-7 cell line was obtained from ReBLikon GmbH (Mainz, Germany) {20879}. The MT-4 cell line (HTLV-1 transformed, human T lymphoblastoid cells) was obtained from the NIH AIDS Reagent program (Bathesda, Md.). The human hepatoblastoma cell line HepG2, human prostate carcinoma cell line PC-3, and normal fetal lung derived MRC-5 cells were obtained from the American Type Culture Collection (ATCC, Manassas, Va.).
(§3) Huh-7 cells were maintained in Dulbecco's Modified Eagle Medium (DMEM) supplemented with 10% fetal bovine serum (FBS, Hyclone, Logan, Utah), 1% non-essential amino acids (Gibco, Carlsbad, Calif.). PC-3 and HepG2 cells were adapted to grow in 0.2% galactose-containing, glucose-free Dulbecco's Modified Eagle Medium (DMEM) supplemented with 10% fetal bovine serum (FBS, Hyclone, Logan, Utah), 1% non-essential amino acids (Gibco, Carlsbad, Calif.), 1% Pyruvate (Cellgro), 1% Glutamax (Invitrogen, Carlsbad, Calif.). Galactose-adapted cells were maintained in the same culture medium. MRC-5 cells were maintained in Eagle's Minimum Essential Medium (EMEM) supplemented with 10% fetal bovine serum (FBS, Hyclone, Logan, Utah). MT-4 cells were maintained in RPMI-1640 supplemented with 10% fetal bovine serum (FBS, Hyclone, Logan, Utah). All cell culture media were also supplemented with 100 Units/mL penicillin, 100 μg/mL streptomycin (Gibco).
(§4) Using a Biotek uFlow Workstation (Biotek, Winooski, Vt.), 1500 HepG2, 1500 PC-3, 500 Huh7 or 1500 MRC-5 cells in 90 μL of culture media were dispensed into each well of black polystyrene tissue culture-treated 384-well plates. Plated cells were incubated for 24 hours in an incubator at 37° C., 5% CO2 and 90% humidity. Compound serial dilutions were performed in 100% DMSO in 384-well polypropylene (high recovery) plates on a Biomek FX Workstation (Beckman Coulter, Fullerton, Calif.). After 3-fold serial dilutions, 0.4 μL of compounds were transferred into 384-well plates containing cells using a Velocity 11 system equipped with a Bravo 384-well pipettor. The DMSO concentration in the final assay plates was 0.44% (v/v). Cells were incubated with compound(s) for five days at 37° C. Puromycin (44 μM final concentration) and DMSO (0.44%, v/v) were used as a positive and negative controls, respectively
(§5) At the end of the incubation period the cytotoxicity assay was performed as follows: Media from 384-well cell culture plates were aspirated with a Biotek EL405 plate-washer (Biotek) and cells were washed with 100 μL PBS once. Twenty microliters of Cell Titer Glo (Promega, Madison, Wis.) was added to each well of the plates with a Biotek uFlow liquid dispenser. Plates were incubated for 15 minutes at room temperature before luminescence was measured with a Perkin Elmer Envision Plate Reader (Perkin Elmer, Waltham, Mass.).
(§6) CC50 values were defined as the compound concentration that caused a 50% decrease in luminescence signal, and were calculated by non-linear regression using Pipeline Pilot software by applying a four parameter fit equation (Accelrys, San Diego, Calif.). Individual CC50 values are listed as μM concentrations.

MRC-5 cells = assay: Off-target cytotoxicity, MRC-5 cells (Cell Titer Glo, 5 days); conditions: MRC-5, five days incubation, intracellular ATP; read-out: CC50 MHCS CTG 50
From the text: as §1, §2, §3, §4, §5, §6

[2] = Off-target cytotoxicity, MT-4 cells (Cell Titer Glo, 5 days); conditions: human, MT-4, five days incubation, intracellular ATP, read-out: CC50 (MT4)
From the text: as §1, with “These cells have a relatively higher sensitivity to inhibitors of mitochondrial oxidative phosphorylation compared to the same cells maintained in standard glucose-containing culture medium (Marroquin et al., Toxicol. Sci. 2007; 97 (2):539-47).” left out
as §2, with “The” for “The human hepatoma Huh-7 cell line was obtained from ReBLikon GmbH (Mainz, Germany) {20879}. The”
as §3, with “MT-4 cells were maintained in RPMI-1640 supplemented with 10% fetal bovine serum (FBS, Hyclone, Logan, Utah).” left out
For the MT-4 cytotoxicity assay, 0.4 μL of serially diluted compounds were added to 40 μl of cell maintenance media in 384-well black, solid bottom plate using a Biomek FX workstation (Beckman Coulter). Two thousand cells in 35 μL were added to each well using a Biotek uFlow Workstation (Biotek). […] Assay plates were incubated for five days at 37° C. in an incubator set at 5% CO2 and 90% humidity. After five days, 22 μL of Cell Titer Glo reagent (Promega) was added to the assay plates with a Biotek uFlow Workstation. Plates were subsequently placed on a Perkin Elmer Envision Plate Reader for five minutes before the luminescence signal was read.

[3] = Off-target cytotoxicity, Huh-7 cells (Cell Titer Glo, 5 days); conditions: human, Huh-7 cells; Huh-7, five days incubation, intracellular ATP; read-out: CC50 HEH7 CTG 50
From the text: as §1, §2, §3, §4, §5, §6

[4] = Off-target cytotoxicity, galactose-adapted PC-3 cells (Cell Titer Glo, 5 days); conditions: human, galactose-adapted PC-3, five days incubation, intracellular ATP, read-out: CC50 GALFC3 CTG 50
From the text: as §1, with “These cells have a relatively higher sensitivity to inhibitors of mitochondrial oxidative phosphorylation compared to the same cells maintained in standard glucose-containing culture medium (Marroquin et al., Toxicol. Sci. 2007; 97 (2):539-47).” left out
as §2, with “The” for “The human hepatoma Huh-7 cell line was obtained from ReBLikon GmbH (Mainz, Germany) {20879}. The”
as §3, with “MT-4 cells were maintained in RPMI-1640 supplemented with 10% fetal bovine serum (FBS, Hyclone, Logan, Utah).” left out
as §4, with “C.” for “C. Puromycin (44 μM final concentration) and DMSO (0.44%, v/v) were used as a positive and negative controls, respectively”
as §5

[5] = Off-target cytotoxicity, MRC-5 cells (Cell Titer Glo, 5 days); conditions: human, MRC-5 cells; MRC-5, five days incubation, intracellular ATP; read-out: CC50 MHCS CTG 50
From the text: as §1, §2, §3, §4, §5, §6

Huh-7 cells = assay: Off-target cytotoxicity, Huh-7 cells (Cell Titer Glo, 5 days); conditions: Huh-7, five days incubation, intracellular ATP; read-out: CC50 HEH7 CTG 50
From the text: as §1, §2, §3, §4, §5, §6

Row | SMILES | CC50 at 5 days [1] [µM] | CC50 (MRC-5 cells) [µM] | CC50 at 5 days [2] [µM] | CC50 at 5 days [3] [µM] | CC50 at 5 days [4] [µM] | CC50 at 5 days [5] [µM] | CC50 (Huh-7 cells) [µM]
1 | CCCC[C@@](C)(Nc1nc(N)nc2cc(F)cnc12)C(C)O (single isomer, unassigned) [Compound 95] | 28.1 | 44.4 | 44.1 | 31.3 | 16.8 | – | –
2 | CCCC[C@H](CO)Nc1nc(N)nc2cccnc12 [Compound 15, (R)-2-((2-aminopyrido[3,2-d]pyrimidin-4-yl)amino)hexan-1-ol] | 1.23 | – | 8.62 | 19.7 | 0.69 | 7.6 | –
3 | CCCC[C@H](CO)Nc1nc(N)nc2cc(F)cnc12 [Compound 44, (R)-2-((2-amino-7-fluoropyrido[3,2-d]pyrimidin-4-yl)amino)hexan-1-ol] | 1.07 | – | 1.97 | 9.64 | 0.52 | 3.72 | –
4 | CCCC[C@@](C)(CO)Nc1nc(N)nc2cc(F)cnc12 [Compound 64, (S)-2-((2-amino-7-fluoropyrido[3,2-d]pyrimidin-4-yl)amino)-2-methylhexan-1-ol] | 3.56 | – | 6.79 | 10.4 | 1.99 | 6.97 | –
5 | CCCC[C@](CO)(Nc1nc(N)nc2cccnc12)C(F)(F)F [Compound 93, (R)-2-((2-aminopyrido[3,2-d]pyrimidin-4-yl)amino)-2-(trifluoromethyl)hexan-1-ol] | 7.73 | – | 18.6 | – | 3.63 | 38.9 | 44.4
6 | CCCC[C@](C)(CO)Nc1nc(N)nc2cc(F)cnc12 [Compound 98, (R)-2-((2-amino-7-fluoropyrido[3,2-d]pyrimidin-4-yl)amino)-2-methylhexan-1-ol] | 6.7 | – | 16.2 | 21.9 | 4.53 | 24.4 | –
7 | CCCC[C@](C)(CNC(C)=O)Nc1nc(N)nc2cc(F)cnc12 [Compound 101, (R)—N-(2-((2-amino-7-fluoropyrido[3,2-d]pyrimidin-4-yl)amino)-2-methylhexyl)acetamide] | ≥ 44.4 | 44.4 | 56.6 | – | 44.4 | – | 44.4
8 | CCCC[C@@H](Nc1nc(N)nc2cc(F)cnc12)C(O)CF (stereo partly drawn) [Compound 102, (3R)-3-((2-amino-7-fluoropyrido[3,2-d]pyrimidin-4-yl)amino)-1-fluoroheptan-2-ol] | 27.4 | 44.4 | 57.1 | – | 19.1 | – | 44.4
